The record followed here is patent US20170189507A1, “NOVEL PEPTIDES AND COMBINATION OF PEPTIDES FOR USE IN IMMUNOTHERAPY AGAINST VARIOUS CANCERS” (immatics biotechnologies GmbH, priority 2015, published 2017).

The assay concerns HLA-A*24. Description: MHC binding assay (UV-ligand exchange, beta2m ELISA), HLA-A*24. Also on record: species or system human. The conditions noted are these: MHC class I binding score, peptide exchange yield. The source says: Candidate peptides for T cell based therapies according to the present invention were further tested for their MHC binding capacity (affinity). The individual peptide-MHC complexes were produced by UV-ligand exchange, where a UV-sensitive peptide is cleaved upon UV-irradiation, and exchanged with the peptide of interest as analyzed. Only peptide candidates that can effectively bind and stabilize the peptide-receptive MHC molecules prevent dissociation of the MHC complexes. To determine the yield of the exchange reaction, an ELISA was performed based on the detection of the light chain ([…] of stabilized MHC complexes. The assay was performed as generally described in Rodenko et al. (Rodenko et al., 2006).
96 well MAXISorp plates (NUNC) were coated over night with 2 ug/ml streptavidin in PBS at room temperature, washed 4× and blocked for 1 h at 37° C. in 2% BSA containing blocking buffer. Refolded HLA-A*02:01/MLA-001 monomers served as standards, covering the range of 15-500 ng/ml. Peptide-MHC monomers of the UV-exchange reaction were diluted 100 fold in blocking buffer. Samples were incubated for 1 h at 37° C., washed four times, incubated with 2 ug/ml HRP conjugated anti-β2m for 1 h at 37° C., washed again and detected with TMB solution that is stopped with […]. Absorption was measured at 450 nm. Candidate peptides that show a high exchange yield (preferably higher than 50%, most preferred higher than 75%) are generally preferred for a generation and production of antibodies or fragments thereof, and/or T cell receptors or fragments thereof, as they show sufficient avidity to the MHC molecules and prevent dissociation of the MHC complexes.
Turning to “276 (VYGFQWRHF; listed as Homo sapiens) [compound 276]”, the Peptide exchange result is on record as “++++ (>=75% = ++++)”.
Then “193 (RFHPTPLLL; listed as Homo sapiens) [compound 193]”, with “++++ (>=75% = ++++)”; and “278 (RYISDQLFTNF; listed as Homo sapiens) [compound 278]”, with “++++ (>=75% = ++++)”; and “272 (QYLQDAYSF; listed as Homo sapiens) [compound 272]”, with “++++ (>=75% = ++++)”.
To “202 (VYWDSAGAAHF; listed as Homo sapiens) [compound 202]” belongs “++++ (>=75% = ++++)”; to “184 (VFQNFPLLF; listed as Homo sapiens) [compound 184]”, “++++ (>=75% = ++++)”; to “274 (AYLHSHALI; listed as Homo sapiens) [compound 274]”, “++++ (>=75% = ++++)”.
To “187 (TYLRDQHFL; listed as Homo sapiens) [compound 187]” belongs “++++ (>=75% = ++++)”; to “173 (IYSWILDHF; listed as Homo sapiens) [compound 173]”, “++++ (>=75% = ++++)”; to “277 (VYQGHTALL; listed as Homo sapiens) [compound 277]”, “++++ (>=75% = ++++)”.
Take “216 (QYSSVFKSL; listed as Homo sapiens) [compound 216]”: the Peptide exchange entry is “++++ (>=75% = ++++)”.
To “168 (KYQDILETI; listed as Homo sapiens) [compound 168]” belongs “++++ (>=75% = ++++)”; to “271 (LYHDIFSRL; listed as Homo sapiens) [compound 271]”, “++++ (>=75% = ++++)”; to “192 (SYALLTYMI; listed as Homo sapiens) [compound 192]”, “++++ (>=75% = ++++)”.
With “194 (EFGSLHLEFL; listed as Homo sapiens) [compound 194]”, the Peptide exchange result is listed as “+ (<20% = +)”.
Then “228 (KYTSWYVAL; listed as Homo sapiens) [compound 228]”, with “++++ (>=75% = ++++)”; and “177 (VYPWLGALL; listed as Homo sapiens) [compound 177]”, with “++++ (>=75% = ++++)”.
As to “186 (IFPQFLYQF; listed as Homo sapiens) [compound 186]”, the Peptide exchange entry is on record as “++++ (>=75% = ++++)”.
Then “160 (VYTLDIPVL; listed as Homo sapiens) [compound 160]”, with “++++ (>=75% = ++++)”; and “227 (IFLDYEAGTLSF; listed as Homo sapiens) [compound 227]”, with “++++ (>=75% = ++++)”.
On to “282 (KFVDSTFYL; listed as Homo sapiens) [compound 282]”, for which the Peptide exchange result was “++++ (>=75% = ++++)”.
“280 (RYPDNLKHLYL; listed as Homo sapiens) [compound 280]”: the Peptide exchange entry was “++++ (>=75% = ++++)”.
Then “181 (LYLDIINLF; listed as Homo sapiens) [compound 181]”, with “++++ (>=75% = ++++)”; and “195 (TYSVSFPMF; listed as Homo sapiens) [compound 195]”, with “++++ (>=75% = ++++)”.
With “161 (IYLVSIPEL; listed as Homo sapiens) [compound 161]”, the Peptide exchange entry is “++++ (>=75% = ++++)”.
To “210 (IYTMIYRNL; listed as Homo sapiens) [compound 210]” belongs “++++ (>=75% = ++++)”; to “217 (FFPPTRQMGLLF; listed as Homo sapiens) [compound 217]”, “++++ (>=75% = ++++)”; to “267 (KYMVYPQTF; listed as Homo sapiens) [compound 267]”, “++++ (>=75% = ++++)”.
“211 (YYLEVGKTLI; listed as Homo sapiens) [compound 211]”: the Peptide exchange result is reported as “++++ (>=75% = ++++)”.
As for “175 (YYEVHKELF; listed as Homo sapiens) [compound 175]”, the Peptide exchange result is “++++ (>=75% = ++++)”.
To “166 (YYVESGKLF; listed as Homo sapiens) [compound 166]” belongs “++++ (>=75% = ++++)”; to “179 (MYDSYWRQF; listed as Homo sapiens) [compound 179]”, “++++ (>=75% = ++++)”.
As to “289 (KYPVEWAKF; listed as Homo sapiens) [compound 289]”, the Peptide exchange entry is on record as “++++ (>=75% = ++++)”.
Then “172 (TYTTVPRVAF; listed as Homo sapiens) [compound 172]”, with “++++ (>=75% = ++++)”.
